pIC50: −log10 of the molar value. Where “and” joins values, the source holds several entries; their conditions need not be identical. Equal values may be shown once.
System: 349418-098-R tumor spheroid viability
Assay: Anticancer human tumor 349418-098-R patient-derived lung adenocarcinoma cell line growth inhibition
Details: spheroids with HUVEC and MSC; for viability, T/C: stronger effect = lower value
Source text: Multicellular complex tumor spheroid response to DNA repair inhibitors in combination with DNA-damaging drugs
This study explores the anticancer activities of DNA-damaging drugs and inhibitors of DNA damage repair, both as single agents and in combinations. Complex tumor spheroids comprised of malignant cells, endothelial cells and mesenchymal stem cells served as an in vitro model for human solid tumors. This model system incorporates physiologically relevant features and patient-derived or established malignant cell lines with clinically relevant genetic alterations from many tumor types. Twenty-six patient-derived or established malignant cell lines were evaluated representing sarcoma, melanoma, small cell lung cancer (SCLC), non-small cell lung cancer (NSCLC), as well as bladder, ovarian and pancreatic cancers. The concentration ranges selected for each drug and investigational agent were based upon clinically achievable concentrations if the clinical Cmax of the agent was known.
Compounds. The drugs and compounds olaparib (NSC753686), talazoparib (NSC767125), berzosertib (NSC777718), elimusertib (NSC800525), nedisertib (NSC802822), VX-984 (NSC792969), AZD-1390 (NSC803789), temozolomide (NSC362856), topotecan (NSC609699), trabectedin (NSC813783), staurosporine (NSC755774), and gemcitabine (NSC613327) were obtained from the National Cancer Institute (NCI) Developmental Therapeutics Program Chemical Repository. The FDA-approved anticancer drug set is available from the Developmental Therapeutics Program at https://dtp.cancer.gov/organization/dscb/obtaining/available_plates.htm. […] The stock solutions were prepared in dimethyl sulfoxide (DMSO, Sigma-Aldrich, St. Louis, MO, cat. D2650) at 400-fold the tested concentration and stored at -70 degrees C. Prior to their use, the stock solutions were diluted in fresh medium and the final DMSO concentration in the assay was 0.25% (v/v). All drugs and investigational agents were tested over a range starting from a high concentration at or near the clinical Cmax and decreasing in half-log increments. If the clinical Cmax for an agent had not been determined, the highest concentration tested was 10 microM.
Cell Lines. The patient-derived cancer cell (PDC) lines: 156681-154-R-J1-PDC, 283228-195-R-J1-PDC, 287954-098-R-J1-PDC, 292921-168-R-J2-PDC, 349418-098-R-PDC, 425362-245-T-J1-PDC, 556581-035-R-J1-PDC, and BL0293-F563-PDC were received from the NCI Patient-Derived Models Repository (PDMR, https://pdmr.cancer.gov). The established cell lines HS-SY-2 (RRID:CVCL_8719), MPNST, and SYO-1 (RRID:CVCL_7146) were obtained from the Sloan Kettering Institute. The alveolar soft parts sarcoma cell line ASPS-1 (RRID:CVCL_S738) was established at the NCI and grown from internal seed stocks. The following established cell lines were purchased from the American Type Culture Collection (ATCC, Manassas, VA): G-401 (ATCC, cat. CRL-1441, RRID:CVCL_0270), SW982 (ATCC, cat. HTB-93, RRID:CVCL_1734), VA-ES-BJ (ATCC, cat. CRL-2138, RRID:CVCL_1785), NCI-H719 (ATCC, cat. CRL-5837, RRID:CVCL_1582), NCI-H196 (ATCC, cat. CRL-5823, RRID:CVCL_1509), NCI-H841 (ATCC, cat. CRL-5845, RRID:CVCL_1595), NCI-H1618 (ATCC, cat. CRL-5879, RRID:CVCL_1480), NCI-H1876 (ATCC, cat. CRL-5902, RRID:CVCL_1503), DMS 114 (ATCC, cat. CRL-2066; RRID:CVCL_1174), NCI-H211 (ATCC, cat. CRL-5824; RRID:CVCL_1529), and SW 1271 (ATCC, cat. CRL-2177, RRID:CVCL_1716). The small cell lung cancer cell line COR-L88 was purchased from Sigma-Aldrich (cat. 92031917-1VL, RRID:CVCL_1141). The non-small cell lung cancer cell lines NCI-H226 (RRID:CVCL_1544) and NCI-H322M (RRID:CVCL_1557) were established at the NCI and grown from internal seed stocks. Pooled donor human umbilical vein endothelial cells (HUVEC, Lonza, cat. CC-2519) and human mesenchymal stem cells (hMSC, Lonza, cat. PT-2501) were purchased from Lonza (Walkersville, MD).
Cell Culture. All cells were maintained in an incubator at 37 degrees C and 5% CO2 with 95% humidity. […]
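Note: spheroids exposed to compound for 7 days before measurement.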
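Throughout, for viability, T/C: percent of vehicle control viability with 100% = DMSO-treated spheroids.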

In the case of `CNCc1ccc(-c2cc(-c3nc(-c4ccc(S(=O)(=O)C(C)C)cc4)cnc3N)on2)cc1`, the viability, T/C (compound 0.00949 µM) was 99.8% and 99.6% and 96.2%, the viability, T/C (compound 0.03 µM) was 104% and 99.5% and 92.1% and the viability, T/C (compound 0.0949 µM) was 94.8% and 98.9% and 94.1%. For the same compound, the viability, T/C (compound 0.3 µM) was 71.1% and 34.7% and 85.6%, the viability, T/C (compound 0.949 µM) was 8.67% and 9.93% and 16.6% and the viability, T/C (compound 3 µM) was 2.53% and 1.43% and 6.14%. The pIC50 (curve of compound) was 6.35 and 6.64 and 6.26.

`COc1cc(C)[nH]c(=O)c1CN1CCc2c(Cl)cc(C(OC)C3COC3)c(Cl)c2C1=O` (configuration not stated) + CC[C@@]1(O)C(=O)OCc2c1cc1n(c2=O)Cc2cc3c(CN(C)C)c(O)ccc3nc2-1 gave a pIC50 (curve of first compound, second compound 0.003 µM) of less than 5.00, a pIC50 (curve of first compound, second compound 0.00949 µM) of less than 5.00 and a pIC50 (curve of first compound, second compound 0.03 µM) of 5.26. The pIC50 (curve of first compound, second compound 0.0949 µM) was greater than 7.50, the pIC50 (curve of first compound, second compound 0.3 µM) was greater than 7.50 and the viability, T/C (second compound 0.003 µM, first compound 0.0316 µM) was 108%. It also gave a viability, T/C (second compound 0.003 µM, first compound 0.1 µM) of 123%, a viability, T/C (second compound 0.003 µM, first compound 0.316 µM) of 104% and a viability, T/C (second compound 0.003 µM, first compound 1 µM) of 109%. It also gave a viability, T/C (second compound 0.003 µM, first compound 3.16 µM) of 109%, a viability, T/C (second compound 0.003 µM, first compound 10 µM) of 114% and a viability, T/C (second compound 0.00949 µM, first compound 0.0316 µM) of 104%. It also gave a viability, T/C (second compound 0.00949 µM, first compound 0.1 µM) of 121%, a viability, T/C (second compound 0.00949 µM, first compound 0.316 µM) of 100% and a viability, T/C (second compound 0.00949 µM, first compound 1 µM) of 113%. The viability, T/C (second compound 0.00949 µM, first compound 3.16 µM) was 97.1%, the viability, T/C (second compound 0.00949 µM, first compound 10 µM) was 94.8% and the viability, T/C (second compound 0.03 µM, first compound 0.0316 µM) was 89.7%. It also gave a viability, T/C (second compound 0.03 µM, first compound 0.1 µM) of 73.8%, a viability, T/C (second compound 0.03 µM, first compound 0.316 µM) of 65.6% and a viability, T/C (second compound 0.03 µM, first compound 1 µM) of 71.8%. It also gave a viability, T/C (second compound 0.03 µM, first compound 3.16 µM) of 60.1%, a viability, T/C (second compound 0.03 µM, first compound 10 µM) of 40.5% and a viability, T/C (second compound 0.0949 µM, first compound 0.0316 µM) of 19.4%. The viability, T/C (second compound 0.0949 µM, first compound 0.1 µM) was 17.1%, the viability, T/C (second compound 0.0949 µM, first compound 0.316 µM) was 9.77% and the viability, T/C (second compound 0.0949 µM, first compound 1 µM) was 16%. It also gave a viability, T/C (second compound 0.0949 µM, first compound 3.16 µM) of 13.4%, a viability, T/C (second compound 0.0949 µM, first compound 10 µM) of 8.01% and a viability, T/C (second compound 0.3 µM, first compound 0.0316 µM) of 5.42%. For the same compound, the viability, T/C (second compound 0.3 µM, first compound 0.1 µM) was 4.95%, the viability, T/C (second compound 0.3 µM, first compound 0.316 µM) was 4.96% and the viability, T/C (second compound 0.3 µM, first compound 1 µM) was 3.5%. It also gave a viability, T/C (second compound 0.3 µM, first compound 3.16 µM) of 4.11% and a viability, T/C (second compound 0.3 µM, first compound 10 µM) of 5.21%.

Reference: PubChem BioAssay AID1845197 (Molecular Pharmacology Branch, DTP, NCI, 2023)
